Assay results: patent publication US6737383B1, “Herbicidal oxadiazolidines” (priority 1999, dated 2004)

Tests used:
winter wheat [1] = assay: Test E winter wheat; format: in vivo, Triticum aestivum; settings: Postemergence
In short: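 Visual evaluation versus untreated controls after about 21 to 28 days in the greenhouse. Compound was in a surfactant-containing non-phytotoxic solvent; postemergence plants were treated at the 1- to 4-leaf stage, grown in a 60:40 sandy loam and potting mix blend.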

wild oat = assay: Test E wild oat; format: in vivo, Avena fatua; settings: Preemergence
winter barley = assay: Test E winter barley; format: in vivo, Hordeum vulgare; settings: Preemergence
cocklebur = assay: Test B pre/postemergence cocklebur; format: in vivo, Xanthium strumarium
In short: (§1)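 Test chemicals in a non-phytotoxic solvent mixture with surfactant were sprayed preemergence onto planted seeds and postemergence onto plants 2 to 18 cm tall (1- to 4-leaf stage). After twelve to sixteen days in a greenhouse, injury was visually rated against untreated controls from 0 (no effect) to 10 (complete control).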

green foxtail = assay: Test E green foxtail; format: in vivo, Setaria viridis; settings: Preemergence
blackgrass = assay: Test E blackgrass; format: in vivo, Alopecurus myosuroides; settings: Preemergence
corn = assay: Test B pre/postemergence corn; format: in vivo, Zea mays
In short: as §1

surinam grass = assay: Test B pre/postemergence surinam grass; format: in vivo, Brachiaria decumbens
In short: as §1

crabgrass = assay: Test B pre/postemergence crabgrass; format: in vivo, Digitaria sanguinalis
In short: as §1

Italian ryegrass = assay: Test E Italian ryegrass; format: in vivo, Lolium multiflorum; settings: Preemergence
winter wheat [2] = assay: Test E winter wheat; format: in vivo, Triticum aestivum; settings: Preemergence
[3] = Rate 125 g/ha, 0 to 100 scale (0 no effect, 100 complete control)
[4] = Rate 500 g/ha, 0 to 100 scale (0 no effect, 100 complete control)
[5] = Preemergence, Rate 62 g/ha, scale of 0 to 10 where 0 is no effect and 10 is complete control
[6] = Preemergence, Rate 250 g/ha, scale of 0 to 10 where 0 is no effect and 10 is complete control
[7] = Preemergence, Rate 500 g/ha, scale of 0 to 10 where 0 is no effect and 10 is complete control
[8] = Rate 62 g/ha, Postemergence, scale 0 to 10 (0 no effect, 10 complete control)
[9] = Rate 125 g/ha, Postemergence, scale of 0 to 10 where 0 is no effect and 10 is complete control
[10] = Rate 125 g/ha, Preemergence, scale of 0 to 10 where 0 is no effect and 10 is complete control
[11] = Rate 250 g/ha, Postemergence, scale of 0 to 10 where 0 is no effect and 10 is complete control
[12] = Rate 500 g/ha, Postemergence, scale 0 to 10, 0 no effect, 10 complete control
[13] = Rate 1000 g/ha, 0 to 100 scale where 0 is no effect and 100 is complete control
[14] = Postemergence, Rate 125 g/ha, scale of 0 to 10 where 0 is no effect and 10 is complete control
[15] = Preemergence, Rate 62 g/ha, scale 0 to 10 (0 no effect, 10 complete control)
[16] = Preemergence, Rate 125 g/ha, 0 is no effect, 10 is complete control
[17] = Preemergence, Rate 250 g/ha, scale 0 to 10, 0 is no effect, 10 is complete control
[18] = Preemergence, Rate 500 g/ha, scale 0 to 10 (0 no effect, 10 complete control)
[19] = Rate 62 g/ha, Postemergence, scale of 0 to 10 where 0 is no effect and 10 is complete control
[20] = Rate 250 g/ha, Postemergence, scale 0 to 10, 0 is no effect, 10 is complete control

COCn1c(=O)on(C(=O)N(c2ccc(F)cc2)C(C)C)c1=O [Compound 293]
9: Corn plant response rating (corn; [6]) | Plant response rating, B. signalgrass (surinam grass; [7]) | Plant response rating, Crabgrass (crabgrass; [11])
50: Plant response rating, Wheat (winter) (winter wheat [1]; Rate 125 g/ha, 0 to 100 scale, 0 is no effect, 100 is complete control) | Plant response rating, Wheat (winter) (winter wheat [1]; Rate 500 g/ha, 0 to 100 scale, 0 is no effect, 100 is complete control) | Plant response rating, Wild oat (wild oat; [4]) | Plant response rating, Barley (winter) (winter barley; [4]) | Plant response rating, Blackgrass (blackgrass; [4]) | I. Ryegrass plant response rating (0 to 100 scale) (Italian ryegrass; Rate 250 g/ha) | Plant response rating, I. Ryegrass (Italian ryegrass; [4]) | Wheat (winter) plant response rating (0 to 100 scale) (winter wheat [2]; Rate 250 g/ha)
70: Green foxtail plant response rating (0 to 100 scale) (green foxtail; Rate 250 g/ha)
7: B. signalgrass plant response rating (surinam grass; [6]) | Plant response rating, B. signalgrass (surinam grass; [11]) | B. signalgrass plant response rating (surinam grass; [12])
55: Plant response rating, Green foxtail (green foxtail; [3]) | Plant response rating, Wheat (winter) (winter wheat [2]; [4])
40: Plant response rating, Barley (winter) (winter barley; [3]) | Barley (winter) plant response rating (0 to 100 scale) (winter barley; Rate 250 g/ha) | Plant response rating, Blackgrass (blackgrass; [3]) | Plant response rating, Wheat (winter) (winter wheat [2]; [3])
8: Crabgrass plant response rating (crabgrass; [6]) | Plant response rating, Crabgrass (crabgrass; [7]) | Crabgrass plant response rating (crabgrass; [9])
30: Wheat (winter) plant response rating (winter wheat [1]; Rate 250 g/ha, 0 to 100 scale where 0 is no effect and 100 is complete control) | Plant response rating, I. Ryegrass (Italian ryegrass; [3])
2: B. signalgrass plant response rating (surinam grass; [5])
60: Plant response rating, Green foxtail (green foxtail; [4])
1: Crabgrass plant response rating (crabgrass; [5])
10: Wild oat plant response rating (0 to 100 scale) (wild oat; Rate 250 g/ha)
3: Corn plant response rating (corn; [12]) | B. signalgrass plant response rating (surinam grass; [10]) | Crabgrass plant response rating (crabgrass; [10])
0: Plant response rating, Wild oat (wild oat; [3]) | Cocklebur plant response rating (cocklebur; [5]) | Cocklebur plant response rating (cocklebur; [6]) | Plant response rating, Cocklebur (cocklebur; [7]) | Cocklebur plant response rating (cocklebur; [8]) | Cocklebur plant response rating (cocklebur; [9]) | Cocklebur plant response rating (cocklebur; [10]) | Plant response rating, Cocklebur (cocklebur; [11]) | Cocklebur plant response rating (cocklebur; [12]) | Corn plant response rating (corn; [5]) | Corn plant response rating (corn; [8]) | Corn plant response rating (corn; [9]) | Corn plant response rating (corn; [10]) | Plant response rating, Corn (corn; [11]) | B. signalgrass plant response rating (surinam grass; [8]) | B. signalgrass plant response rating (surinam grass; [9])
6: Crabgrass plant response rating (crabgrass; [8])

CC(C)N(C(=O)n1oc(=O)n(-c2cnn(C)c2)c1=O)c1ccccc1 [Compound 123]
1: Cocklebur plant response rating (cocklebur; [12])
7: Crabgrass plant response rating (crabgrass; [18])
8: Plant response rating, Crabgrass (crabgrass; [20])
65: Plant response rating, Wheat (winter) (winter wheat [1]; Rate 1000 g/ha, 0 to 100 scale, 0 is no effect and 100 is complete control) | Plant response rating, Blackgrass (blackgrass; [13])
10: Plant response rating, Wheat (winter) (winter wheat [2]; Rate 250 g/ha, 0 to 100 scale)
55: Plant response rating, Wheat (winter) (winter wheat [1]; Rate 250 g/ha, 0 to 100 scale (0 no effect, 100 complete control)) | Plant response rating, Wild oat (wild oat; [13])
30: Plant response rating, Barley (winter) (winter barley; Rate 250 g/ha, 0 to 100 scale) | Plant response rating, Blackgrass (blackgrass; Rate 250 g/ha, 0 to 100 scale)
2: B. signalgrass plant response rating (surinam grass; [18])
20: Plant response rating, Green foxtail (green foxtail; Rate 250 g/ha, 0 to 100 scale) | Plant response rating, Wheat (winter) (winter wheat [2]; [13])
3: Plant response rating, B. signalgrass (surinam grass; [20])
5: B. signalgrass plant response rating (surinam grass; Rate 500 g/ha, Postemergence, scale of 0 to 10 where 0 is no effect and 10 is complete control) | Crabgrass plant response rating (0 to 10 scale) (crabgrass; [16]) | Crabgrass plant response rating (crabgrass; [17])
40: Plant response rating, Green foxtail (green foxtail; [13]) | Plant response rating, I. Ryegrass (Italian ryegrass; Rate 250 g/ha, 0 to 100 scale)
50: Plant response rating, Barley (winter) (winter barley; [13]) | Plant response rating, I. Ryegrass (Italian ryegrass; [13])
0: Cocklebur plant response rating (cocklebur; [14]) | Cocklebur plant response rating (cocklebur; [15]) | Cocklebur plant response rating (0 to 10 scale) (cocklebur; [16]) | Cocklebur plant response rating (cocklebur; [17]) | Cocklebur plant response rating (cocklebur; [18]) | Cocklebur plant response rating (cocklebur; [19]) | Plant response rating, Cocklebur (cocklebur; [20]) | Corn plant response rating (corn; [14]) | Corn plant response rating (corn; [15]) | Corn plant response rating (0 to 10 scale) (corn; [16]) | Corn plant response rating (corn; [17]) | Corn plant response rating (corn; [18]) | Corn plant response rating (corn; [19]) | Plant response rating, Corn (corn; [20]) | Corn plant response rating (corn; [12]) | B. signalgrass plant response rating (surinam grass; Postemergence, Rate 62 g/ha, scale 0 to 10, 0 is no effect, 10 is complete control) | B. signalgrass plant response rating (surinam grass; [14]) | B. signalgrass plant response rating (surinam grass; [15]) | B. signalgrass plant response rating (0 to 10 scale) (surinam grass; [16]) | B. signalgrass plant response rating (surinam grass; [17]) | Crabgrass plant response rating (crabgrass; [19])
9: Crabgrass plant response rating (crabgrass; [12])
4: Crabgrass plant response rating (crabgrass; [14]) | Crabgrass plant response rating (crabgrass; [15])
